Experimental data as given in patent US20210277008A1, “IMIDAZO[1,2-B]PYRIDAZINE DERIVATIVES AS TRK INHIBITORS” (BenevolentAI Bio Limited, priority 2018, published 2021).

Legend:
Format in all cases: biochemical
TrkA = target: T1, TrkA (Homo sapiens, UniProt P04629); test: HTRF KinEASE kinase assay, TrkA enzyme; conditions: recombinant Human TRK enzyme, NTRK1 4 nM, read-out: TrkA Enz (nM), Trk inhibition activity expressed as IC50
T1 construct: purchased Invitrogen
Experimental: (§1) To determine the IC50 of small molecule compounds for the Human TRK receptors, HTRF® KinEASE™ kinase kits from Cisbio were used. Assays were carried out in low volume, black 384-well plates.
(§2) Recombinant Human TRK enzymes (Invitrogen) were incubated in the presence or absence of the compound (11-point dose response with FAC as 10 μM) for 30 minutes at 23° C. Kinase reaction was started by addition of ATP to a mixture containing the enzyme (NTRK1-4 nM, NTRK2-1 nM, NTRK3-10 nM) and substrate (1 μM). Kinase reaction was allowed to carry on for 10 to 45 minutes at 23° C. after which it was stopped by addition of the detection mix (supplied by vendor) containing EDTA, TK-Ab-labelled with Eu^3+-cryptate (1:200 dilutions) and Streptavidin-XL665 (250 nM). Assay plates were incubated in this detection mix for 60 minutes at 23° C. The resulting TR-FRET signal, calculated as the fluorescence ratio at 665/620 nm, was read on an Envision and was proportional to the level of phosphorylation of the peptide in the presence or absence of the compound. The uniformity of the plates were assured with Z′ value [1-{3*(SDHPE+SDZPE)/(ZPE-HPE)}]. The percent (%) effect i.e. Inhibition of compound was calculated in comparison to the signal in the positive (HPE) and negative control (ZPE) wells within each assay plate. The endpoint value % Inhibition for the Standard compound was evaluated in each experiment as a quality control measure. IC50 was determined by plotting compound inhibition at respective dose in Graphpad prism5 using four parameter logistic curve fit.

TrkB = target: T2, TrkB (Homo sapiens, UniProt Q16620); test: HTRF KinEASE kinase assay, TrkB enzyme; conditions: recombinant Human TRK enzyme, NTRK2 1 nM, read-out: TrkB Enz (nM), Trk inhibition activity expressed as IC50
T2 construct: purchased Invitrogen
Experimental: as §1, §2

TrkC = target: T3, TrkC (Homo sapiens, UniProt Q16288); test: HTRF KinEASE kinase assay, TrkC enzyme; conditions: recombinant Human TRK enzyme, NTRK3 10 nM, read-out: TrkC Enz (nM), Trk inhibition activity expressed as IC50
T3 construct: purchased Invitrogen
Experimental: as §1, §2

T2 sequence (Q16620 32-822): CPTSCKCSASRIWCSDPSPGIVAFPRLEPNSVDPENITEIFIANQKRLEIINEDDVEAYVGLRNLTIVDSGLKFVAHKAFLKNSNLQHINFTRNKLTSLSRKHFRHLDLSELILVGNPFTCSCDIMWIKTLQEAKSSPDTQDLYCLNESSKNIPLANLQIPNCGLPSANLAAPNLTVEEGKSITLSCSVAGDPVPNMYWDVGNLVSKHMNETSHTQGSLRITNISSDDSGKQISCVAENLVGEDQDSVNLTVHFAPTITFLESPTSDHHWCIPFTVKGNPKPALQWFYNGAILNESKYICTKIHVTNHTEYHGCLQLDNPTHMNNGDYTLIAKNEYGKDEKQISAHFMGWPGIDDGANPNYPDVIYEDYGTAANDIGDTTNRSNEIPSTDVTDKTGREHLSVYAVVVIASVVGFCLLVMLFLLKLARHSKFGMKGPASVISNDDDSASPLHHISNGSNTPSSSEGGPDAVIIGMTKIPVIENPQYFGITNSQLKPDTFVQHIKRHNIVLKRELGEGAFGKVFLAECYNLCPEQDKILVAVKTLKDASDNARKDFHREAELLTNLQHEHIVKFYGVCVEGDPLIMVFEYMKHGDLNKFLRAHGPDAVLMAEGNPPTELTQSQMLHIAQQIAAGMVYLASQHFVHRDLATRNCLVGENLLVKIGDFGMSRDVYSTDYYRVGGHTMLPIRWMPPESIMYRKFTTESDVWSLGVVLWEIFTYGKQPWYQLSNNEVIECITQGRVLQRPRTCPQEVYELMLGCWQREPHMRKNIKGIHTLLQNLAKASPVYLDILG
T1 sequence (P04629 33-796): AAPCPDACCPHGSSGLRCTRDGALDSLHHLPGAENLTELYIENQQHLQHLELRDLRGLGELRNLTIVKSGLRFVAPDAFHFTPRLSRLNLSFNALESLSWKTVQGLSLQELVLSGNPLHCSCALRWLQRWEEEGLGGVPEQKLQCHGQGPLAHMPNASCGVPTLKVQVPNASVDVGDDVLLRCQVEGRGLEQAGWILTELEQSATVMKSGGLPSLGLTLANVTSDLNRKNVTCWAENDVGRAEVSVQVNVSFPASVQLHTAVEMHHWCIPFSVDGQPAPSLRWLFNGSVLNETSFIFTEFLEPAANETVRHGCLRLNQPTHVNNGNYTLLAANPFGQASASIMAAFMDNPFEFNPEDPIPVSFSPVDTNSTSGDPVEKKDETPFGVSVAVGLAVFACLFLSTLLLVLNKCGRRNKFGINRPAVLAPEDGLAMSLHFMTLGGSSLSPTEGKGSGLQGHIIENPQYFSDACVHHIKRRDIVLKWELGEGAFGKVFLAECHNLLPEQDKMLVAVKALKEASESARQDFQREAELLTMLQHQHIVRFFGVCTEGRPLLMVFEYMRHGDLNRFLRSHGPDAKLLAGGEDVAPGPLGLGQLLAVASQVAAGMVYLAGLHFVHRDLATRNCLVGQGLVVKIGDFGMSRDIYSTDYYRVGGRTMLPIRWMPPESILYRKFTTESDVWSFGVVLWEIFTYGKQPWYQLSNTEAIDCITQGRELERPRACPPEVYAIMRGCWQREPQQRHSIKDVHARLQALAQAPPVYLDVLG
T3 sequence (Q16288 32-839): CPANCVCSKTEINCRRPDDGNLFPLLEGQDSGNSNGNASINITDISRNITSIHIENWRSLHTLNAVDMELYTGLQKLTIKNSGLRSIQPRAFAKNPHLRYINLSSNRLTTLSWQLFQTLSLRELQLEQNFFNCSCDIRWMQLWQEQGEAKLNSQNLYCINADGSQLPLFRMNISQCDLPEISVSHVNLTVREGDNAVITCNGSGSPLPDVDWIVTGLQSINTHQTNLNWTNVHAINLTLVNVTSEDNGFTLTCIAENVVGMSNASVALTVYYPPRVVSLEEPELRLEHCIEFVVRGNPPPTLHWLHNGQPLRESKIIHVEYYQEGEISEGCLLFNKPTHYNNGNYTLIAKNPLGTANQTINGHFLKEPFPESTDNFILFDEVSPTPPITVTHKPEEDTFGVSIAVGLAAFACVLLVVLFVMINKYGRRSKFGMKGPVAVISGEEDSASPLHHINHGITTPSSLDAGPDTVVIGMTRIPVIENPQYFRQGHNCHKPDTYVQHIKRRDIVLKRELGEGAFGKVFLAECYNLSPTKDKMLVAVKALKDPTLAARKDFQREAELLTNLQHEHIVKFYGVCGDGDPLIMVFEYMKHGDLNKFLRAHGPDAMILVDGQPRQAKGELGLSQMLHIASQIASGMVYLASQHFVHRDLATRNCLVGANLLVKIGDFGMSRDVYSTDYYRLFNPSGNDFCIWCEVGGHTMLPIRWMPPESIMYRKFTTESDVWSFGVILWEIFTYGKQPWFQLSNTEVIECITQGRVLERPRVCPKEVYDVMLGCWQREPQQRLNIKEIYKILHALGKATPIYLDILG

| SMILES | IC50 (TrkA) | IC50 (TrkB) | IC50 (TrkC) |
| --- | --- | --- | --- |
| CCCCN/C(=N\C#N)c1cnc2ccc(N3C[C@@H](F)C[C@@H]3c3cc(F)ccc3SC)nn12 [Example 5, (Z)-N-butyl-N′-cyano-6-[(2R,4S)-4-fluoro-2-[5-fluoro-2-(methylsulfanyl)phenyl]pyrrolidin-1-yl]imidazo[1,2-b]pyridazine-3-carboximidamide] | 1.1 nM | 0.41 nM | 1.61 nM |
| CCN/C(=N\C#N)c1cnc2ccc(N3C[C@@H](F)C[C@@H]3c3cc(F)cc(SC)c3)nn12 [Example 3, (Z)-N′-cyano-N-ethyl-6-[(2R,4S)-4-fluoro-2-[5-fluoro-3-(methylsulfanyl)phenyl]pyrrolidin-1-yl]imidazo[1,2-b]pyridazine-3-carboximidamide] | 1.17 nM | 0.37 nM | 1.53 nM |
| CCN/C(=N\C#N)c1cnc2ccc(N3C[C@@H](F)C[C@@H]3c3cc(F)ccc3SC)nn12 [Example 4, (Z)-N′-cyano-N-ethyl-6-[(2R,4S)-4-fluoro-2-[5-fluoro-2-(methylsulfanyl)phenyl]pyrrolidin-1-yl]imidazo[1,2-b]pyridazine-3-carboximidamide] | 0.97 nM | 0.23 nM | 1 nM |
| CSc1ccc(F)cc1[C@H]1CCCN1c1ccc2ncc(/C(=N/C#N)N[C@@H]3CCCOC3)n2n1 [Example 1, (Z)-N′-cyano-6-[(2R)-2-[5-fluoro-2-(methylsulfanyl)phenyl]pyrrolidin-1-yl]-N-[(3R)-oxan-3-yl]imidazo[1,2-b]pyridazine-3-carboximidamide] | 0.95 nM | 0.88 nM | 1.6 nM |
| CSc1ccc(F)cc1[C@H]1CCCN1c1ccc2ncc(/C(=N/C#N)N[C@H]3CCCOC3)n2n1 [Example 2, (Z)-N′-cyano-6-[(2R)-2-[5-fluoro-2-(methylsulfanyl)phenyl]pyrrolidin-1-yl]-N-[(3S)-oxan-3-yl]imidazo[1,2-b]pyridazine-3-carboximidamide] | 1.04 nM | 0.83 nM | 1.78 nM |
| CSc1ccc(F)cc1[C@H]1C[C@H](F)CN1c1ccc2ncc(/C(=N/C#N)NC3CCCCC3)n2n1 [Example 6, (Z)-N′-cyano-N-cyclohexyl-6-[(2R,4S)-4-fluoro-2-[5-fluoro-2-(methylsulfanyl)phenyl]pyrrolidin-1-yl]imidazo[1,2-b]pyridazine-3-carboximidamide] | 1.52 nM | 0.7 nM | 1.91 nM |
| CSc1ccc(F)cc1[C@H]1CCCN1c1ccc2ncc(/C(=N/C#N)NCc3cccc(O)c3)n2n1 [Example 7, (Z)-N′-cyano-6-[(2R)-2-[5-fluoro-2-(methylsulfanyl)phenyl]pyrrolidin-1-yl]-N-[(3-hydroxyphenyl)methyl]imidazo[1,2-b]pyridazine-3-carboximidamide] | 1.44 nM | 1.55 nM | 3.16 nM |
